US9834526B2 (MERCK SHARP & DOHME CORP., priority 2013, dated 2017)

target: T1, wildtype HIV-1 protease (Human immunodeficiency virus type 1 group M subtype B, UniProt P04585); assay: Inhibition of microbial expressed HIV protease (Pepcleav); assay type: biochemical; conditions: wild type HIV-1 protease expressed in E. coli, 20 pM enzyme, 400 micromolar peptide substrate, pH 5.5, LC-MS readout; mean of at least two independent experiments
T1 construct: preincubated with the HIV-1 protease (wild type) enzyme in assay buffer; made in house; host or cells: Escherichia coli
Description: Assay for Inhibition of Microbial Expressed HIV Protease (“Pepcleav”)
Studies of the inhibition of the wildtype HIV-1 protease (which was expressed in Escherichia coli) were carried out with a peptide substrate [Val-Ser-Gln-Asn-(βnaphthyl)Ala-Pro-Ile-Val (SEQ ID NO:1)]. The inhibitor was first preincubated with the HIV-1 protease (wild type) enzyme in assay buffer (50 mM sodium acetate, pH 5.5, 100 mM NaCl, and 0.1% BSA) for 30 minutes at room temperature. Substrate was added to 400 micromolar in a total volume of 20 microliters containing 20 picomolar HIV-1 protease (final) and the reaction was incubated for 1 hour at 30° C. The reaction was quenched with the addition of formic acid and indinavir to 0.012% and 150 nM final concentrations, respectively. The product formation was determined after separation of product and substrate on a Zorbax Eclipse XDB-C18 column connected to an API 4000 mass spectrometer (Applied Biosystems) with multiple reaction monitoring (transitions were 644.5/428.9 and 615.4/422.2 (M1/M3) for product and indinavir respectively). The extent of inhibition of the reaction was determined from the peak area of the products. Analysis of the products, independently synthesized, provided quantitation standards and confirmation of the product composition.

Compound | IC50
COC(=O)N[C@H](C(=O)Nc1ccccc1CC[C@@H]1CN[C@H](C)[C@@H](CSc2cnc3ccccc3n2)O1)C(c1ccccc1)c1ccccc1 [Example 9, methyl N-[(1S)-1-benzhydryl-2-[[2-[2-[(2R,5R,6S)-5-methyl-6-(quinoxalin-2-ylsulfanylmethyl)morpholin-2-yl]ethyl]phenyl]amino]-2-oxo-ethyl]carbamate] | 8.48 nM
COC(=O)N[C@H](C(=O)Nc1ccccc1CC[C@@H]1CN[C@H](C)[C@@H](CSc2ncnc3[nH]ncc23)O1)C(c1ccccc1)c1ccccc1 [Example 10, methyl N-[(1S)-1-benzhydryl-2-[[2-[2-[(2R,5R,6S)-5-methyl-6-(1H-pyrazolo[3,4-d]pyrimidin-4-ylsulfanylmethyl)morpholin-2-yl]ethyl]phenyl]amino]-2-oxo-ethyl]carbamate] | 9.43 nM
COC(=O)N[C@H](C(=O)Nc1ccccc1CC[C@@H]1CN[C@H](C)[C@@H](CSc2nnnn2CCN(C)C)O1)C(c1ccccc1)c1ccccc1 [Example 28, methyl N-[(1S)-1-benzhydryl-2-[[2-[2-[(2R,5R,6S)-6-[[1-(2-dimethylaminoethyl)tetrazol-5-yl]sulfanylmethyl]-5-methyl-morpholin-2-yl]ethyl]phenyl]amino]-2-oxo-ethyl]carbamate] | 214 nM
N[C@H](C(=O)Nc1cccc(F)c1CC[C@@H]1CN[C@H](CO)[C@@H](COC(=O)NCC(F)(F)F)O1)C(c1ccc(F)cc1)c1ccc(F)cc1 [Example 63, 4-fluoro-N-(3-fluoro-2-{2-[(2R,5R,6S)-5-(hydroxymethyl)-6-({[(2,2,2-trifluoroethyl)carbamoyl]oxy}methyl)morpholin-2-yl]ethyl}phenyl)-β-(4-fluorophenyl)-L-phenylalaninamide] | 130 nM
C[C@H]1O[C@H](CCc2c(F)cccc2NC(=O)[C@@H](N)C(c2ccc(F)cc2)c2ccc(F)cc2)CN[C@@H]1COC(=O)NCc1ccc(F)cc1 [Example 48, 4-fluoro-N-(3-fluoro-2-{2-[(2R,5R,6R)-5-({[(4-fluorobenzyl)carbamoyl]oxy}methyl)-6-methylmorpholin-2-yl]ethyl}phenyl)-β-(4-fluorophenyl)-L-phenylalaninamide] | 5.8 nM
COC(=O)N[C@H](C(=O)Nc1ccccc1CC[C@@H]1CN[C@H](C)[C@@H](CSc2nc3ncccc3[nH]2)O1)C(c1ccccc1)c1ccccc1 [Example 22, methyl N-[(1S)-1-benzhydryl-2-[[2-[2-[(2R,5R,6S)-6-(1H-imidazo[4,5-b]pyridin-2-ylsulfanylmethyl)-5-methyl-morpholin-2-yl]ethyl]phenyl]amino]-2-oxo-ethyl]carbamate] | 44.4 nM
COC(=O)N[C@H](C(=O)Nc1ccccc1CC[C@@H]1CN[C@H](c2ncc[nH]2)[C@@H](CSc2nnc(-c3ccncc3)o2)O1)C(c1ccccc1)c1ccccc1 [Example 32, N-(2-{2-[(2R,5R,6S)-5-(1H-imidazol-2-yl)-6-({[5-(pyridin-4-yl)-1,3,4-oxadiazol-2-yl]sulfanyl}methyl)morpholin-2-yl]ethyl}phenyl)-Nα-(methoxycarbonyl)-β-phenyl-L-phenylalaninamide] | 0.65 nM
COC(=O)N[C@H](C(=O)Nc1ccccc1CC[C@@H]1CN[C@H](COC(=O)NCc2ccc(F)cc2)[C@@H](CSc2nnc(-c3ccncc3)o2)O1)C(c1ccccc1)c1ccccc1 [Example 35, N-(2-{2-[(2R,5R,6S)-5-({[(4-fluorobenzyl)carbamoyl]oxy}methyl)-6-({[5-(pyridin-4-yl)-1,3,4-oxadiazol-2-yl]sulfanyl}methyl)morpholin-2-yl]ethyl}phenyl)-Nα-(methoxycarbonyl)-β-phenyl-L-phenylalaninamide] | 0.0304 nM
CCC(O)(c1cnc(SC[C@H]2O[C@H](CCc3ccccc3NC(=O)[C@@H](NC(=O)OC)C(c3ccccc3)c3ccccc3)CN[C@@H]2C)s1)C(F)(F)F (stereo partly drawn) [Example 15, methyl N-[(1S)-1-benzhydryl-2-[[2-[2-[(2R,5R,6S)-6-[[5-[1-hydroxy-1-(trifluoromethyl)propyl]thiazol-2-yl]sulfanylmethyl]-5-methyl-morpholin-2-yl]ethyl]phenyl]amino]-2-oxo-ethyl]carbamate] | 17.8 nM
